Patent US20140105921A1, “Prodrugs of Peptide Epoxy Ketone Protease Inhibitors” (Onyx Therapeutics, Inc., priority 2012, published 2014)

How the values were obtained:
[1] = Buffer Conversion Rates of Prodrugs to Compound B; format: physicochemical
[2] = Conversion of Prodrugs by Human Liver S9; format: in vitro ADME
[3] = In vivo mouse PK of Compound A and PEG prodrugs; settings: for [Cmpd A]: BLOQ = below level of quantitation

Row | SMILES | Buffer pH = 7.4 % Conversion @ 1 hour [1] [%] | other results
1 | COC[C@H](NC(=O)c1cnc(C)s1)C(=O)N[C@@H](COC)C(=O)N[C@@H](Cc1ccccc1)C(=O)[C@](C)(O)CI [20-1] | 24 | 
2 | COC[C@H](NC(=O)c1cnc(C)s1)C(=O)N[C@@H](COC)C(=O)N[C@@H](Cc1ccccc1)C(=O)[C@](C)(O)CCl [20-2] | 0 | 
3 | COC[C@H](NC(=O)c1cnc(C)s1)C(=O)N[C@@H](COC)C(=O)N[C@@H](Cc1ccccc1)C(=O)[C@](C)(O)CBr [20-3] | 23 | 
4 | COC[C@H](NC(=O)c1cnc(C)s1)C(=O)N[C@@H](COC)C(=O)N[C@@H](Cc1ccccc1)C(=O)[C@](C)(O)COS(=O)(=O)CC(F)F [20-6] | 5.7 | 
5 | CCCCS(=O)(=O)OC[C@@](C)(O)C(=O)[C@H](Cc1ccccc1)NC(=O)[C@H](COC)NC(=O)[C@H](COC)NC(=O)c1cnc(C)s1 [20-7] | 4.2 | 
6 | COC[C@H](NC(=O)c1cnc(C)s1)C(=O)N[C@@H](COC)C(=O)N[C@@H](Cc1ccccc1)C(=O)[C@@](C)(CI)OC(=O)Oc1ccccc1 [20-26] |  | Human Liver S9 % Conversion @ 1 hour [2]: 32%
7 | CC(C)C[C@H](NC(=O)[C@H](CCc1ccccc1)NC(=O)CN1CCOCC1)C(=O)N[C@@H](Cc1ccccc1)C(=O)N[C@@H](CC(C)C)C(=O)[C@@]1(C)CO1 [Cmpd A, (S)-4-methyl-N—((S)-1-(((S)-4-methyl-1-((R)-2-methyloxiran-2-yl)-1-oxopentan-2-yl)amino)-1-oxo-3-phenylpropan-2-yl)-2-((S)-2-(2-morpholinoacetamido)-4-phenylbutanamido)pentanamide] |  | [Cmpd A] ([3]; Time 4 hr): BLOQ; [Cmpd A] ([3]; Time 6 hr): BLOQ; [Cmpd A] ([3]; Time 24 hr): BLOQ; concentration at 1 hr ([3]; plasma, Time 1 hr, read-out: [Cmpd A]): 8 nM
8 | COC[C@H](NC(=O)c1cnc(C)s1)C(=O)N[C@@H](COC)C(=O)N[C@@H](Cc1ccccc1)C(=O)[C@](C)(O)COS(=O)(=O)C1CCOCC1 [compound 22] | 9.8 | 
9 | COC[C@H](NC(=O)c1cnc(C)s1)C(=O)N[C@@H](COC)C(=O)N[C@@H](Cc1ccccc1)C(=O)[C@](C)(O)COS(=O)(=O)Cc1ccccc1 [compound 23] | 9.6 | 
